Results from patent US5262417A, “Antibacterial quinolone compounds” (The Upjohn Company, priority 1991, dated 1993).
Values after ≈ are worked out from the molar mass of the structure shown. Values joined by “and” are separate entries in the source; they are usually repeats but may differ in a detail not shown here. Equal values may be shown once. Read-outs that look alike come from different tables or passages of the source.

Experiments:
Type in all cases: cell-based
[1] = tested on: Staphylococcus aureus UC 80 (SA); test: Dipped disk (disk-diffusion) assay, disks loaded with 0.10 ml
Method: (§1) The effectiveness of the subject compounds on some bacteria were obtained by performing a dipped disk assay. The antibacterial activity of the compounds is determined by the disk-diffusion method. […] They were then applied to the surface of microorganism-seeded agar assay trays, which contained the bacterial strain Pseudomonas aeruginosa UC 95 )PA), Escherichia coli UC 51 (EC) or Staphylococcus aureus UC 80 (SA). The assay trays were incubated overnight under aerobic condition to allow for the growth of the organisms. Zones of growth inhibition due to the action of the antibiotic were then measured to the nearest millimeter.

[2] = tested on: Pseudomonas aeruginosa UC 95 (PA); test: as above; settings: Pseudomonas aeruginosa, UC95; Conc 1 mg/ml, 0.10 ml per disk; read-out: Growth Inhibition Zone, PA
Method: as §1

[3] = tested on: Serratia marcescens; test: Minimum inhibitory concentration (MIC) by agar dilution; settings: 20 h, read-out: MINIMUM INHIBITORY CONCENTRATION
Outline: (§2)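 Susceptibility followed the NCCLS agar dilution procedure in unsupplemented Mueller Hinton agar, with bacterial inocula standardised to 0.5 McFarland turbidity and diluted 1:20 in Trypticase soy broth.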

[4] = tested on: Proteus penneri; test: as above; settings: for MIC: Proteus penneri
Outline: as §2

[5] = tested on: Staphylococcus epidermidis; test: as above; settings: 20 h
Outline: as §2

[6] = tested on: Escherichia coli; test: as above; settings: for MIC: Escherichia coli
Outline: as §2

[7] = tested on: Streptococcus pyogenes; test: as above; settings: for MIC: Streptococcus pyogenes
Outline: as §2

[8] = tested on: Staphylococcus aureus; test: as above; settings: for MIC: Staphylococcus aureus
Outline: as §2

[9] = tested on: Klebsiella pneumoniae; test: as above
Outline: as §2

[10] = tested on: Streptococcus pneumoniae; test: as above; settings: for MIC: Streptococcus pneumoniae
Outline: as §2

[11] = tested on: Streptococcus faecalis; test: as above; settings: Enterococcus faecalis
Outline: as §2

[12] = tested on: Acinetobacter calcoaceticus; test: as above; settings: for MIC: Acinetobacter calcoaceticus
Outline: as §2

[13] = tested on: Citerobacter freundii; test: as above
Outline: as §2

[14] = tested on: Pseudomonas aeruginosa; test: as above; settings: for MIC: Pseudomonas aeruginosa
Outline: as §2

[15] = tested on: Escherichia coli UC 51 (EC); test: Dipped disk (disk-diffusion) assay, disks loaded with 0.10 ml; set-up: zone of inhibition: dose or concentration left out as unconfirmed
Method: as §1

[16] = 20 h, read-out: MINIMUM INHIBITORY CONCENTRATION

For `O=C(O)c1cn(C2CC2)c2cc(N3CCNCC3)c(F)cc2c1=O` [Ciprofloxacin, reference compound], the “Growth Inhibition Zone, SA” value ([1]; Conc 1 mg/ml, 0.10 ml per disk) was 30 mm, the zone of inhibition at 1000 µg/mL ([1]; Staphylococcus aureus, UC80, read-out: Growth Inhibition Zone, SA, Conc 1 mg/ml, 0.10 ml per disk) was 28 mm and the zone of inhibition at 1000 µg/mL [2] was 48 mm. For the same compound, the MIC [3] was 0.06 mg/L (≈ 0.181 µM), the “MINIMUM INHIBITORY CONCENTRATION” value ([4]; Cult No. 9679, MHA) was 0.03 mcg per ml and 0.015 mcg per ml and the MIC ([4]; 20 h, read-out: MINIMUM INHIBITORY CONCENTRATION, Cult No. 9679, MHA) was 0.015 mg/L (≈ 0.0453 µM). The MIC ([4]; UC9679, 20 h, read-out: Minimum Inhibitory Concentration, P. penneri UC 9679, Table CI) was 0.015 mg/L (≈ 0.0453 µM), the MIC ([5]; read-out: MINIMUM INHIBITORY CONCENTRATION) was 0.125 mg/L (≈ 0.377 µM) and the MIC ([5]; read-out: Minimum Inhibitory Concentration) was 0.06 mg/L (≈ 0.181 µM). The “MINIMUM INHIBITORY CONCENTRATION” value ([6]; Cult No. 9855, MHA) was 0.015 mcg per ml and 0.03 mcg per ml, the “MINIMUM INHIBITORY CONCENTRATION” value ([6]; Cult No. 9952, MHA) was 0.015 mcg per ml and < 0.008 mcg per ml and the MIC ([6]; 20 h, read-out: MINIMUM INHIBITORY CONCENTRATION, Cult No. 6674, MHA) was 0.015 mg/L (≈ 0.0453 µM). For the same compound, the MIC ([6]; 20 h, read-out: MINIMUM INHIBITORY CONCENTRATION, Cult No. 9451, MHA) was 0.015 mg/L (≈ 0.0453 µM), the MIC ([6]; 20 h, read-out: MINIMUM INHIBITORY CONCENTRATION, Cult No. 9855, MHA) was 0.015 mg/L (≈ 0.0453 µM) and the MIC ([6]; 20 h, read-out: MINIMUM INHIBITORY CONCENTRATION, Cult No. 9952, MHA) was 0.015 mg/L (≈ 0.0453 µM). For the same compound, the MIC ([6]; UC6674, 20 h, E. coli UC 6674, Table CI, read-out: Minimum Inhibitory Concentration) was 0.015 mg/L (≈ 0.0453 µM), the MIC ([6]; UC9451, 20 h, E. coli UC 9451, Table CI, read-out: Minimum Inhibitory Concentration) was 0.015 mg/L (≈ 0.0453 µM) and the MIC ([6]; UC9855, 20 h, E. coli UC 9855, Table CI, read-out: Minimum Inhibitory Concentration) was 0.015 mg/L (≈ 0.0453 µM). The MIC ([6]; UC9952, 20 h, E. coli UC 9952, Table CI, read-out: Minimum Inhibitory Concentration) was under 0.008 mg/L, the “MINIMUM INHIBITORY CONCENTRATION” value ([7]; Cult No. 152, MHA) was 0.25 mcg per ml and 0.125 mcg per ml and the MIC ([7]; 20 h, read-out: MINIMUM INHIBITORY CONCENTRATION, Cult No. 152, MHA) was 0.25 mg/L (≈ 0.754 µM). The MIC ([7]; UC152, 20 h, read-out: Minimum Inhibitory Concentration, S. pyogenes UC 152, Table CI) was 0.25 mg/L (≈ 0.754 µM), the “MINIMUM INHIBITORY CONCENTRATION” value ([8]; Cult No. 6685, MHA) was 0.25 mcg per ml and 0.125 mcg per ml and the “MINIMUM INHIBITORY CONCENTRATION” value ([8]; Cult No. 9213, MHA) was 1 mcg per ml and 0.5 mcg per ml. For the same compound, the “MINIMUM INHIBITORY CONCENTRATION” value ([8]; Cult No. 9218, MHA) was 0.5 mcg per ml and 0.25 mcg per ml, the MIC ([8]; 20 h, read-out: MINIMUM INHIBITORY CONCENTRATION, Cult No. 3665, MHA) was 1 mg/L (≈ 3.02 µM) and the MIC ([8]; 20 h, read-out: MINIMUM INHIBITORY CONCENTRATION, Cult No. 6685, MHA) was 0.25 mg/L (≈ 0.754 µM). The MIC ([8]; 20 h, read-out: MINIMUM INHIBITORY CONCENTRATION, Cult No. 9213, MHA) was 1 mg/L (≈ 3.02 µM), the MIC ([8]; 20 h, read-out: MINIMUM INHIBITORY CONCENTRATION, Cult No. 9218, MHA) was 0.5 mg/L (≈ 1.51 µM) and the MIC ([8]; 20 h, read-out: MINIMUM INHIBITORY CONCENTRATION, Cult No. 9271, MHA) was 0.5 mg/L (≈ 1.51 µM). The MIC ([8]; UC6685, 20 h, read-out: Minimum Inhibitory Concentration, S. aureus UC 6685, Table CI) was 0.25 mg/L (≈ 0.754 µM), the MIC ([8]; UC9213, 20 h, read-out: Minimum Inhibitory Concentration, S. aureus UC 9213, Table CI) was 1 mg/L (≈ 3.02 µM) and the MIC ([8]; UC9218, 20 h, read-out: Minimum Inhibitory Concentration, S. aureus UC 9218, Table CI) was 0.5 mg/L (≈ 1.51 µM). It also gave an MIC ([8]; UC9271, 20 h, read-out: Minimum Inhibitory Concentration, S. aureus UC 9271, Table CI) of 0.5 mg/L (≈ 1.51 µM), an MIC [9, 16] of 0.03 mg/L (≈ 0.0905 µM) and an MIC ([9]; UC12081, 20 h, read-out: Minimum Inhibitory Concentration) of 0.03 mg/L (≈ 0.0905 µM). For the same compound, the “MINIMUM INHIBITORY CONCENTRATION” value ([10]; Cult No. 41, MHA) was 0.5 mcg per ml and 0.25 mcg per ml, the MIC ([10]; 20 h, read-out: MINIMUM INHIBITORY CONCENTRATION, Cult No. 41, MHA) was 0.5 mg/L (≈ 1.51 µM) and the MIC ([10]; UC41, 20 h, read-out: Minimum Inhibitory Concentration, S. pneumoniae UC 41, Table CI) was 0.5 mg/L (≈ 1.51 µM). It also gave an MIC [11, 16] of 0.5 mg/L (≈ 1.51 µM), an MIC ([11]; UC9217, 20 h, read-out: Minimum Inhibitory Concentration) of 0.5 mg/L (≈ 1.51 µM) and an MIC ([12]; 20 h, read-out: MINIMUM INHIBITORY CONCENTRATION, Cult No. 12170, MHA) of 0.25 mg/L (≈ 0.754 µM). For the same compound, the MIC ([12]; UC12170, 20 h, read-out: Minimum Inhibitory Concentration, A. calcoaceticus UC 12170, Table CI) was 0.25 mg/L (≈ 0.754 µM), the “MINIMUM INHIBITORY CONCENTRATION” value ([12]; Cult No. 12170, MHA) was 0.25 mcg per ml and 0.125 mcg per ml and the MIC [13, 16] was under 0.008 mg/L. The MIC ([13]; Citrobacter freundii, UC3507, 20 h, read-out: Minimum Inhibitory Concentration) was under 0.008 mg/L, the “MINIMUM INHIBITORY CONCENTRATION” value ([14]; Cult No. 9191, MHA) was 0.25 mcg per ml and 0.125 mcg per ml and the MIC ([14]; 20 h, read-out: MINIMUM INHIBITORY CONCENTRATION, Cult No. 6676, MHA) was 0.5 mg/L (≈ 1.51 µM). It also gave an MIC ([14]; 20 h, read-out: MINIMUM INHIBITORY CONCENTRATION, Cult No. 9191, MHA) of 0.25 mg/L (≈ 0.754 µM), an MIC ([14]; 20 h, read-out: MINIMUM INHIBITORY CONCENTRATION, Cult No. 12120, MHA) of 0.125 mg/L (≈ 0.377 µM) and an MIC ([14]; UC6676, 20 h, read-out: Minimum Inhibitory Concentration, Ps. aeruginosa UC 6676, Table CI) of 0.5 mg/L (≈ 1.51 µM). For the same compound, the MIC ([14]; UC9191, 20 h, read-out: Minimum Inhibitory Concentration, Ps. aeruginosa UC 9191, Table CI) was 0.125 mg/L (≈ 0.377 µM), the MIC ([14]; UC12120, 20 h, read-out: Minimum Inhibitory Concentration, Ps. aeruginosa UC 12120, Table CI) was 0.125 mg/L (≈ 0.377 µM) and the “Growth Inhibition Zone, EC” value ([15]; Conc 1 mg/ml, 0.10 ml per disk) was 35 mm. The zone of inhibition ([15]; Escherichia coli, UC51, 0.10 ml per disk, read-out: Growth Inhibition Zone, EC) was 33 mm.
